ChEMBL document CHEMBL4765450, “The components and activities analysis of a novel anticoagulant candidate dHG-5” (Eur J Med Chem, 2020)
Calls of active or inactive are those of the source. No cut-off for these calls is given here.

Legend:
[1] = target: T1, Coagulation factor VII (Homo sapiens) (UniProt P08709); assay: Inhibition of factor 7a (unknown origin) at IC50 using pefachrome factor VIIa as substrate preincubated for 1 min followed by chromogenic substrate addition and measured for 2 mins in presence of AT-III; settings: time 3.0 min
T1 sequence (whole entry): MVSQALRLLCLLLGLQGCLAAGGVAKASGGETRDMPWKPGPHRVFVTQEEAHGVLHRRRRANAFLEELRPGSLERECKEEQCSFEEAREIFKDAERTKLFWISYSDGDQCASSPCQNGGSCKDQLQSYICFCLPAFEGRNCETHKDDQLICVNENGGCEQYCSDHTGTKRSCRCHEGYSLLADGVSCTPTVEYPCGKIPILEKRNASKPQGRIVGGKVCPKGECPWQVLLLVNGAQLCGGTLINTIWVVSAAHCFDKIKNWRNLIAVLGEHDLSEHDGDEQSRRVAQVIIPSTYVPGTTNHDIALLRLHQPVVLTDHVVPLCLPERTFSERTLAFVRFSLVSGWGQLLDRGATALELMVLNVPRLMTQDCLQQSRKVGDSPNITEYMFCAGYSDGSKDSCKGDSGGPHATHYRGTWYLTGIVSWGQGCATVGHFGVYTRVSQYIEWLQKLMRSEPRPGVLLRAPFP

[2] = target: Prothrombin (Homo sapiens) (UniProt P00734); assay: Inhibition of factor 2a (unknown origin) at IC50 preincubated for 1 min followed by chromogenic substrate addition and measured for 2 mins; settings: time 3.0 min
[3] = target: T2, Coagulation factor XII (Homo sapiens) (UniProt P00748); assay: Inhibition of factor 12a (unknown origin) at IC50 using kallikrein chromogenic substrate preincubated for 1 min followed by chromogenic substrate addition and measured for 2 mins in presence of AT-III; settings: time 3.0 min
T2 sequence (whole entry): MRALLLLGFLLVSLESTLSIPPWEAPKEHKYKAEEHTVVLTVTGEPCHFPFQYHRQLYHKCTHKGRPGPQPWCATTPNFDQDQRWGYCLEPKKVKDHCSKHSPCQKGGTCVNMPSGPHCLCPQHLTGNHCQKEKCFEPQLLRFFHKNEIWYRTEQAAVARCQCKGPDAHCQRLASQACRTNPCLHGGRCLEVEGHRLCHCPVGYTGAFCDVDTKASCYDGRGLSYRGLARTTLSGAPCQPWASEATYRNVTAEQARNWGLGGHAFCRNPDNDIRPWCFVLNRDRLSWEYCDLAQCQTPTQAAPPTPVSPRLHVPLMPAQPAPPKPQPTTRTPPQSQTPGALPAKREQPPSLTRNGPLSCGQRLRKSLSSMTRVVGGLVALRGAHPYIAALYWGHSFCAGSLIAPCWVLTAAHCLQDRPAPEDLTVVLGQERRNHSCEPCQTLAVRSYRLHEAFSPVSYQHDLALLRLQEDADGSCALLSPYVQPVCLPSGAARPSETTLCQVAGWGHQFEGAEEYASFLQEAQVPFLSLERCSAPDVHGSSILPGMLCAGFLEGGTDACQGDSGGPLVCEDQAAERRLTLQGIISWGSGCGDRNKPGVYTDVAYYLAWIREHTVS

Plasma [4] = assay: Anticoagulation activity in human plasma assessed as drug level causing 20 times doubling of APTT preincubated for 2 mins followed by APTT reagent and measured after 3 mins by coagulometric method relative to dHG-5; assay type: functional; settings: time 5 min
[5] = target: Coagulation factor XI (Homo sapiens) (UniProt P03951); assay: Inhibition of factor 11a (unknown origin) at IC50 using S-2366 as substrate preincubated for 1 min followed by chromogenic substrate addition and measured for 2 mins; settings: time 3.0 min
[6] = target: T3, Coagulation factor IX/VIII (Homo sapiens) (UniProt P00740+P00451); assay: Inhibition of human citrated plasma iXase (factor 8a-factor 9a complex) preincubated for 2 mins followed by factor 10 addition and measured after 1 min by FXa chromogenic substrate SXa-11 based assay relative to dHG-5; assay type: protein-complex assay; settings: time 3.0 min
[7] = target: T1, Coagulation factor VII (Homo sapiens); assay: Inhibition of factor 7a (unknown origin) at IC50 using pefachrome factor VIIa as substrate preincubated for 1 min followed by chromogenic substrate addition and measured for 2 mins; settings: time 3.0 min
[8] = target: Coagulation factor X (Homo sapiens) (UniProt P00742); assay: Inhibition of factor 10a (unknown origin) at IC50 preincubated for 1 min followed by chromogenic substrate addition and measured for 2 mins in presence of AT-III; settings: time 3.0 min
Rattus norvegicus [9] = assay: Antithrombotic activity in thromboplastin and stasis-induced Sprague-Dawley rat deep venous thrombosis model assessed as reduction in venous thrombosis at 3.64 mg/kg, sc administered 1 hr prior to thromboplastin addition for 20 secs followed by establishment of stasis for 20 mins relative to dHG-5; assay type: functional; settings: time 80.33 min, 1.339 h
[10] = target: Prothrombin (Homo sapiens) (UniProt P00734); assay: Inhibition of factor 2a (unknown origin) at IC90 preincubated for 1 min followed by chromogenic substrate addition and measured for 2 mins in presence of AT-III; settings: time 3.0 min
[11] = target: Prothrombin (Homo sapiens) (UniProt P00734); assay: Inhibition of factor 2a (unknown origin) at IC50 preincubated for 1 min followed by chromogenic substrate addition and measured for 2 mins in presence of AT-III; settings: time 3.0 min
[12] = target: T3, Coagulation factor IX/VIII (Homo sapiens); assay: Inhibition of human citrated plasma iXase (factor 8a-factor 9a complex) assessed as activity potency of oligosaccharides multiplied by the percentage of oligosaccharides in dHG-5 preincubated for 2 mins followed by factor 10 addition and measured after 1 min by FXa chromogenic substrate SXa-11 based assay relative to dHG-5; assay type: protein-complex assay; settings: time 3.0 min
[13] = target: Coagulation factor XI (Homo sapiens) (UniProt P03951); assay: Inhibition of factor 11a (unknown origin) at IC90 using S-2366 as substrate preincubated for 1 min followed by chromogenic substrate addition and measured for 2 mins in presence of AT-III; settings: time 3.0 min
Rattus norvegicus [14] = assay: Antithrombotic activity in thromboplastin and stasis-induced Sprague-Dawley rat deep venous thrombosis model assessed as reduction in venous thrombosis by measuring activity potency of oligosaccharides multiplied by the percentage of oligosaccharides in dHG-5 at 3.64 mg/kg, sc administered 1 hr prior to thromboplastin addition for 20 secs followed by establishment of stasis for 20 mins relative …; assay type: functional; settings: time 80.33 min, 1.339 h
[15] = target: T2, Coagulation factor XII (Homo sapiens); assay: Inhibition of factor 12a (unknown origin) at IC50 using kallikrein chromogenic substrate preincubated for 1 min followed by chromogenic substrate addition and measured for 2 mins; settings: time 3.0 min
[16] = target: Coagulation factor X (Homo sapiens) (UniProt P00742); assay: Inhibition of factor 10a (unknown origin) at IC90 preincubated for 1 min followed by chromogenic substrate addition and measured for 2 mins in presence of AT-III relative to control; settings: time 3.0 min
Coagulation factor IX [17] = target: T4, Coagulation factor IX (Homo sapiens, UniProt P00740); assay: Inhibition of factor 9a (unknown origin) binding to immobilized biotinylated oHG-11 assessed as activity potency of oligosaccharides multiplied by the percentage of oligosaccharides in dHG-5 by biolayer interferometry relative to dHG-5
Coagulation factor IX [18] = target: T4, Coagulation factor IX; assay: Inhibition of factor 9a (unknown origin) binding to immobilized biotinylated oHG-11 by biolayer interferometry relative to dHG-5
[19] = target: Coagulation factor X (Homo sapiens) (UniProt P00742); assay: Inhibition of factor 10a (unknown origin) at IC50 preincubated for 1 min followed by chromogenic substrate addition and measured for 2 mins; settings: time 3.0 min
[20] = target: Coagulation factor XI (Homo sapiens) (UniProt P03951); assay: Inhibition of factor 11a (unknown origin) at IC50 using S-2366 as substrate preincubated for 1 min followed by chromogenic substrate addition and measured for 2 mins in presence of AT-III; settings: time 3.0 min
Plasma [21] = assay: Anticoagulation activity in human plasma assessed as drug level causing 20 times doubling of APTT by measuring activity potency of oligosaccharides multiplied by the percentage of oligosaccharides in dHG-5 preincubated for 2 mins followed by APTT reagent and measured after 3 mins by coagulometric method relative to dHG-5; assay type: functional; settings: time 5 min
Rattus norvegicus [22] = assay: Antithrombotic activity in thromboplastin and stasis-induced Sprague-Dawley rat deep venous thrombosis model assessed as reduction in venous thrombosis at 2.7 mg/kg, sc administered 1 hr prior to thromboplastin addition for 20 secs followed by establishment of stasis for 20 mins relative to dHG-5; assay type: functional; settings: time 80.33 min, 1.339 h
Rattus norvegicus [23] = assay: Antithrombotic activity in thromboplastin and stasis-induced Sprague-Dawley rat deep venous thrombosis model assessed as reduction in venous thrombosis by measuring activity potency of oligosaccharides multiplied by the percentage of oligosaccharides in dHG-5 at 2.7 mg/kg, sc administered 1 hr prior to thromboplastin addition for 20 secs followed by establishment of stasis for 20 mins relative to dHG-5; assay type: functional; settings: time 80.33 min, 1.339 h
Plasma [24] = assay: Induction of platelet aggregation in rat wash platelet at plasma peak concentration of 10 times anti-thrombosis ED50 measured after 10 mins by light transmission aggregometry
Plasma [25] = assay: Induction of platelet aggregation in human platelet rich plasma at plasma peak concentration of 10 times anti-thrombosis ED50 measured after 10 mins by light transmission aggregometry

Sequence of Coagulation factor XI (Homo sapiens) (P03951 19-387 limits assumed): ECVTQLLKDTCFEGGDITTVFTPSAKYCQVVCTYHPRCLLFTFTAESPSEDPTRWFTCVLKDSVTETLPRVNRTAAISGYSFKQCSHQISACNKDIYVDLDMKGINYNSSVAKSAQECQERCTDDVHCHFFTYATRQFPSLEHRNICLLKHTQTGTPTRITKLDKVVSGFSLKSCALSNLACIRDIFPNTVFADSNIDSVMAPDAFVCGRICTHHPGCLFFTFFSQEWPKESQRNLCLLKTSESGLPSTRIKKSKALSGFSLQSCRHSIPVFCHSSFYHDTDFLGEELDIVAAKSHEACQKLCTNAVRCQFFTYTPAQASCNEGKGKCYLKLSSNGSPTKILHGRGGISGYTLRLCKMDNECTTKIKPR
Sequence of Coagulation factor XI (Homo sapiens) (P03951 388-625 limits assumed): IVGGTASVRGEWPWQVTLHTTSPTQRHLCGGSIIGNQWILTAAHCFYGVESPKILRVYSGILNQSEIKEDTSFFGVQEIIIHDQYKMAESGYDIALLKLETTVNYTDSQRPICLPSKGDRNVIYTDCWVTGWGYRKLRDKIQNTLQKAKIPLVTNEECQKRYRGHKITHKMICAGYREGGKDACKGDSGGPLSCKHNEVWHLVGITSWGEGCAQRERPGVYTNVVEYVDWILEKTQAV
T4 sequence (P00740 47-191 limits assumed): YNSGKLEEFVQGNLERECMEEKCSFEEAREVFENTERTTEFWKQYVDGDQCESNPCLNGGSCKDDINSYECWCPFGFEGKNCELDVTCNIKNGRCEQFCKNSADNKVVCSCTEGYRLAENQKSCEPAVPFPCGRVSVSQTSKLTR
T4 sequence (P00740 227-461 limits assumed): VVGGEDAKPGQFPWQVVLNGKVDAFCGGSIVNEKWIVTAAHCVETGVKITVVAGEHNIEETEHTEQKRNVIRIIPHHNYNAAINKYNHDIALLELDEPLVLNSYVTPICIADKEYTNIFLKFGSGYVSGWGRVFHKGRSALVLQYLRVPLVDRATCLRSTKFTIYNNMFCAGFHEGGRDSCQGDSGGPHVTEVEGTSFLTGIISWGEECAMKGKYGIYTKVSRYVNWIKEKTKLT
Sequence of Coagulation factor X (Homo sapiens) (P00742 41-179 limits assumed): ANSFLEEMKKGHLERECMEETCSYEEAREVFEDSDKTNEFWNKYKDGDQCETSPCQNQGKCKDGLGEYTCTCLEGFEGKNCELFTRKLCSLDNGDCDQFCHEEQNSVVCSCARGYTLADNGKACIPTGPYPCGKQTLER
Sequence of Coagulation factor X (Homo sapiens) (P00742 235-488 limits assumed): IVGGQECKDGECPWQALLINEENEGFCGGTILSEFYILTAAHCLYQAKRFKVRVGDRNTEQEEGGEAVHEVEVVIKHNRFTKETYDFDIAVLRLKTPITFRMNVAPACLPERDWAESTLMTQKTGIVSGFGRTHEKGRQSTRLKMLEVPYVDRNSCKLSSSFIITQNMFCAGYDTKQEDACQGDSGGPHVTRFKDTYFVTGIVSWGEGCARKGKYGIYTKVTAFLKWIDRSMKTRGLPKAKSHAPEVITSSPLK

SMILES: CC(=O)N[C@H]1[C@H](O[C@@H]([C@H](O[C@@H]2O[C@@H](C)[C@@H](OS(=O)(=O)[O-])[C@@H](O)[C@@H]2OS(=O)(=O)O)[C@@H](O)CO)[C@H](O)C(=O)[O-])O[C@H](COS(=O)(=O)[O-])[C@H](OS(=O)(=O)[O-])[C@@H]1O[C@@H]1O[C@H](C(=O)[O-])[C@@H](O[C@@H]2O[C@H](COS(=O)(=O)[O-])[C@H](OS(=O)(=O)[O-])[C@H](O[C@@H]3O[C@H](C(=O)[O-])[C@@H](O[C@@H]4O[C@H](COS(=O)(=O)[O-])[C@H](OS(=O)(=O)[O-])[C@H](O[C@@H]5OC(C(=O)[O-])=C[C@H](O[C@@H]6O[C@@H](C)[C@@H](OS(=O)(=O)[O-])[C@@H](OS(=O)(=O)O)[C@@H]6O)[C@H]5O)[C@H]4NC(C)=O)[C@H](O[C@@H]4O[C@@H](C)[C@@H](OS(=O)(=O)[O-])[C@@H](O)[C@@H]4OS(=O)(=O)O)[C@H]3O)[C@H]2NC(C)=O)[C@H](O[C@@H]2O[C@@H](C)[C@@H](OS(=O)(=O)[O-])[C@@H](O)[C@@H]2OS(=O)(=O)O)[C@H]1O.[Na+].[Na+].[Na+].[Na+].[Na+].[Na+].[Na+].[Na+].[Na+].[Na+].[Na+].[Na+].[Na+].[Na+]
- inhibition [1]: inactive
- inhibition [2]: inactive
- inhibition [3]: inactive
- Ratio (Plasma [4]): 28.01 U
- inhibition [5]: inactive
- Ratio [6]: 28.6 U
- inhibition (active/not active) [7]: inactive
- inhibition [8]: inactive
- Ratio (Rattus norvegicus [9]): 48.6 U
- inhibition [10]: Active
- inhibition [11]: inactive
- Ratio [12]: 5.02 U
- inhibition [13]: Active
- Ratio (Rattus norvegicus [14]): 8.55 U
- inhibition [15]: inactive
- inhibition [16]: 14.2%
- Ratio (Coagulation factor IX [17]): 3.66 U
- Ratio (Coagulation factor IX [18]): 20.9 U
- inhibition [19]: inactive
- inhibition [20]: inactive
- Ratio (Plasma [21]): 4.92 U

SMILES: CC(=O)N[C@H]1[C@H](O[C@@H]([C@H](O[C@@H]2O[C@@H](C)[C@@H](OS(=O)(=O)[O-])[C@@H](OS(=O)(=O)O)[C@@H]2O)[C@@H](O)CO)[C@H](O)C(=O)[O-])O[C@H](COS(=O)(=O)[O-])[C@H](OS(=O)(=O)[O-])[C@@H]1O[C@@H]1O[C@H](C(=O)[O-])[C@@H](O[C@@H]2O[C@H](COS(=O)(=O)[O-])[C@H](OS(=O)(=O)[O-])[C@H](O[C@@H]3O[C@H](C(=O)[O-])[C@@H](O[C@@H]4O[C@H](COS(=O)(=O)[O-])[C@H](OS(=O)(=O)[O-])[C@H](O[C@@H]5O[C@H](C(=O)[O-])[C@@H](O[C@@H]6O[C@H](COS(=O)(=O)[O-])[C@H](OS(=O)(=O)[O-])[C@H](O[C@@H]7OC(C(=O)[O-])=C[C@H](O[C@@H]8O[C@@H](C)[C@@H](OS(=O)(=O)[O-])[C@@H](OS(=O)(=O)O)[C@@H]8O)[C@H]7O)[C@H]6NC(C)=O)[C@H](O[C@@H]6O[C@@H](C)[C@@H](OS(=O)(=O)[O-])[C@@H](OS(=O)(=O)O)[C@@H]6O)[C@H]5O)[C@H]4NC(C)=O)[C@H](O[C@@H]4O[C@@H](C)[C@@H](OS(=O)(=O)[O-])[C@@H](OS(=O)(=O)O)[C@@H]4O)[C@H]3O)[C@H]2NC(C)=O)[C@H](O[C@@H]2O[C@@H](C)[C@@H](OS(=O)(=O)[O-])[C@@H](OS(=O)(=O)O)[C@@H]2O)[C@H]1O.[Na+].[Na+].[Na+].[Na+].[Na+].[Na+].[Na+].[Na+].[Na+].[Na+].[Na+].[Na+].[Na+].[Na+].[Na+].[Na+].[Na+].[Na+]
- inhibition [1]: inactive
- Ratio (Rattus norvegicus [22]): 113.95 U
- inhibition [2]: inactive
- inhibition [3]: inactive
- Ratio (Plasma [4]): 61.09 U
- inhibition [5]: inactive
- Ratio [6]: 51.8 U
- Ratio (Rattus norvegicus [23]): 18.12 U
- Activity (Plasma [24]): Not Active
- inhibition (active/not active) [7]: inactive
- inhibition [8]: inactive
- inhibition [10]: Active
- inhibition [11]: inactive
- Ratio [12]: 8.26 U
- inhibition [13]: Active
- inhibition [15]: inactive
- inhibition [16]: 14.2%
- Ratio (Coagulation factor IX [17]): 5.72 U
- Ratio (Coagulation factor IX [18]): 35.9 U
- Activity (Plasma [25]): Not Active
- inhibition [19]: inactive
- inhibition [20]: inactive
- Ratio (Plasma [21]): 9.73 U
